# Test results: ChEMBL document CHEMBL5696442, “Discovery of type II inhibitors of TGFβ-activated kinase 1 (TAK1) and mitogen-activated protein kinase kinase kinase kinase 2 (MAP4K2)” (J Med Chem, 2015)
# Active and inactive are the calls of the source. The rule behind the calls is not given here.
# Experiments:
# [1] = target: T1, Mitogen-activated protein kinase 12 (Homo sapiens) (UniProt P53778); experiment: Inhibition of p38gamma Lys2 labeling site in human Huh-7 cells at 1 uM by KiNativ Profiling analysis relative to control; format: cell-based
# T1 sequence (whole entry): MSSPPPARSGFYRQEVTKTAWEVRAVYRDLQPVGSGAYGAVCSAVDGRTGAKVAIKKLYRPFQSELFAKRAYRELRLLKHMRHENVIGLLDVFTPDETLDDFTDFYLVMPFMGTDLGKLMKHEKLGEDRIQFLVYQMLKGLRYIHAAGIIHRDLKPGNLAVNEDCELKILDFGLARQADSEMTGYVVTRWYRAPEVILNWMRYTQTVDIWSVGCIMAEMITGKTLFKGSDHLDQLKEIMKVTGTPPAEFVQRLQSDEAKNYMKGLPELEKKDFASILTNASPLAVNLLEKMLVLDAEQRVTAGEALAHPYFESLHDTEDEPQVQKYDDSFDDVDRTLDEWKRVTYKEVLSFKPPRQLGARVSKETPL
# [2] = target: Insulin receptor (Homo sapiens) (UniProt P06213); experiment: Inhibition of INSR (unknown origin) at 1 uM by Ambit Kinomescan binding assay relative to control; values are per cent of control
# Insulin receptor (Homo sapiens), sequence (P06213 28-758 limits assumed): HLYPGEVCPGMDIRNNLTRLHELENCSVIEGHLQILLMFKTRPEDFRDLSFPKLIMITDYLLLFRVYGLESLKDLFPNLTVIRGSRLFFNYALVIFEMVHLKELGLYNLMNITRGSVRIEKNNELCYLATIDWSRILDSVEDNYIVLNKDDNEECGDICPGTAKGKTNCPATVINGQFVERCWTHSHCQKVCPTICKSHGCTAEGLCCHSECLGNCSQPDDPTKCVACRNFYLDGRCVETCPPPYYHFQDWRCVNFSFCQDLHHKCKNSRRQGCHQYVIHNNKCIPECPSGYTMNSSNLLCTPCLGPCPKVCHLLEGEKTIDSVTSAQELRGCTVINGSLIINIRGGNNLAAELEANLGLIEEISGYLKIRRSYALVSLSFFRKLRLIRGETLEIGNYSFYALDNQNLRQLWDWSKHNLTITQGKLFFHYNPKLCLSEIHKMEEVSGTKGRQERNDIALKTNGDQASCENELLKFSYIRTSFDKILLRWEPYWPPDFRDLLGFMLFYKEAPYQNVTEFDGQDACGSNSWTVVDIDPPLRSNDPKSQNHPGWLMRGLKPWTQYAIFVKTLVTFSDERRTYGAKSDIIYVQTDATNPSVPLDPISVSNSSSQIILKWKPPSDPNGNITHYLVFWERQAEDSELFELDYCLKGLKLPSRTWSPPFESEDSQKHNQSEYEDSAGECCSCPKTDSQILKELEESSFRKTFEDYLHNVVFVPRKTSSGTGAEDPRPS
# Insulin receptor (Homo sapiens), sequence (P06213 763-1382 limits assumed): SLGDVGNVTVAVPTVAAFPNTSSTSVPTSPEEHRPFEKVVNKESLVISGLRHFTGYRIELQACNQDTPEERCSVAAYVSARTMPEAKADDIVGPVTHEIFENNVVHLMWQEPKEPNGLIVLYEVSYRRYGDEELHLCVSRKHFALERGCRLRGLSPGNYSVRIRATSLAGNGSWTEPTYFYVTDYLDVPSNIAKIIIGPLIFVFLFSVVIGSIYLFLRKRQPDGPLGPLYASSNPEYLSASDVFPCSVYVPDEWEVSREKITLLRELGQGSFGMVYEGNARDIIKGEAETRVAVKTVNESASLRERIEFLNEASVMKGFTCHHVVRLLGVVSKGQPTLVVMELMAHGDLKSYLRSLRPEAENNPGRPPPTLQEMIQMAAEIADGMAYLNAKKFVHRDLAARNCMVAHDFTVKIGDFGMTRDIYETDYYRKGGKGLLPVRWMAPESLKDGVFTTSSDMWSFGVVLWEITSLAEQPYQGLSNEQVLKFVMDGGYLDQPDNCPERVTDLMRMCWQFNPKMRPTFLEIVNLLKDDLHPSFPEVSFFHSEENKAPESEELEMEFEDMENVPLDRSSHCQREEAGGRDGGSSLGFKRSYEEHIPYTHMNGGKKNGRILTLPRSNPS
# [3] = target: Serine/threonine-protein kinase 4 (Homo sapiens) (UniProt Q13043); experiment: Inhibition of MST1 Lys1 labeling site harbouring ETGQIVAIKQVPVESDLQEIIK in human A-375 cells at 0.05 uM by KiNativ Profiling analysis relative to control
# Serine/threonine-protein kinase 4 (Homo sapiens), sequence (Q13043 whole entry, looked up, the tested form may be a part): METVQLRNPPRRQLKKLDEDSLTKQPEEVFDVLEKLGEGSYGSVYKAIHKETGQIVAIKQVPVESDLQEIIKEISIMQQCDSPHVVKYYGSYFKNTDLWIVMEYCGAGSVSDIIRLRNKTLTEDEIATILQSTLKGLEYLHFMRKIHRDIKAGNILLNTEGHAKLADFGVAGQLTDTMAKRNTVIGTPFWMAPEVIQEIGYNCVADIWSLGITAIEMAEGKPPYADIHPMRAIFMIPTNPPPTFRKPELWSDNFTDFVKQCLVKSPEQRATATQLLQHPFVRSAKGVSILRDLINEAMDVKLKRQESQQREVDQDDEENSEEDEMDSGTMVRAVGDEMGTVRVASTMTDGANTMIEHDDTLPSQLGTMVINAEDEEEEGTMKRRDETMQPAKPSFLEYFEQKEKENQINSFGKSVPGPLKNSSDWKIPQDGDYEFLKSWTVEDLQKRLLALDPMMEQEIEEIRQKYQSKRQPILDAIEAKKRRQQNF
# [4] = target: T2, Scaffold protein ILK (Homo sapiens) (UniProt Q13418); experiment: Inhibition of ILK Protein Kinase Domain in human A-375 cells at 0.05 uM by KiNativ Profiling analysis relative to control; format: cell-based
# T2 sequence (whole entry): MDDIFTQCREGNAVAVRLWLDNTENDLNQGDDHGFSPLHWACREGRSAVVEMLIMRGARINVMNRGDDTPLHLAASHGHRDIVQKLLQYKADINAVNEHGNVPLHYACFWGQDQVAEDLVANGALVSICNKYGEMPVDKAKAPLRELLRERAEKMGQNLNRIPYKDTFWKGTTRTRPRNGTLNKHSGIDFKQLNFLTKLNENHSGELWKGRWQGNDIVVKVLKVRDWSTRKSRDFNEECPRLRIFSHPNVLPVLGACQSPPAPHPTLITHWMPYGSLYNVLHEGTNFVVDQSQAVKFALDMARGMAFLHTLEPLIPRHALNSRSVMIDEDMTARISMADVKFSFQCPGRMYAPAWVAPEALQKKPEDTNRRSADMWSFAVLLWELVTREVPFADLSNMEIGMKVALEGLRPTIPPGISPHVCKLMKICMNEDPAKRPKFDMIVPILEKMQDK
# [5] = target: Tyrosine-protein kinase Lyn (Homo sapiens, UniProt P07948); experiment: Inhibition of LYN (unknown origin) at 1 uM by Ambit Kinomescan binding assay relative to control; values are per cent of control
# Tyrosine-protein kinase Lyn, sequence (P07948 2-512 limits assumed): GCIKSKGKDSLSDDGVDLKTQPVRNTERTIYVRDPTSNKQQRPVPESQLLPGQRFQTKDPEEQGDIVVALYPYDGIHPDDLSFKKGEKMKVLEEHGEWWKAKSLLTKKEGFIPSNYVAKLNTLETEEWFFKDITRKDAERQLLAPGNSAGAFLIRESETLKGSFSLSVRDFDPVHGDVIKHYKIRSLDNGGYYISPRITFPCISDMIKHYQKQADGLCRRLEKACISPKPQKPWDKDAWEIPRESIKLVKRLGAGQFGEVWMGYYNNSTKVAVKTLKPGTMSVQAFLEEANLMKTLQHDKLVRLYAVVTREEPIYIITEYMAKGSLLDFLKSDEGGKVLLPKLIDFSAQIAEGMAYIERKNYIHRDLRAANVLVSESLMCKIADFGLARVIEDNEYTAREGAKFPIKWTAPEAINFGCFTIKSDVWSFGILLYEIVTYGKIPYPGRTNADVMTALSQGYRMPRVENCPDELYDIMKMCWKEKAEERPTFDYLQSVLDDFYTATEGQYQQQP
# [6] = target: Tyrosine-protein kinase ABL2 (Homo sapiens, UniProt P42684); experiment: Inhibition of ARG Lys1 labeling site in human A-375 cells at 0.05 uM by KiNativ Profiling analysis relative to control; format: cell-based
# Tyrosine-protein kinase ABL2, sequence (P42684 whole entry): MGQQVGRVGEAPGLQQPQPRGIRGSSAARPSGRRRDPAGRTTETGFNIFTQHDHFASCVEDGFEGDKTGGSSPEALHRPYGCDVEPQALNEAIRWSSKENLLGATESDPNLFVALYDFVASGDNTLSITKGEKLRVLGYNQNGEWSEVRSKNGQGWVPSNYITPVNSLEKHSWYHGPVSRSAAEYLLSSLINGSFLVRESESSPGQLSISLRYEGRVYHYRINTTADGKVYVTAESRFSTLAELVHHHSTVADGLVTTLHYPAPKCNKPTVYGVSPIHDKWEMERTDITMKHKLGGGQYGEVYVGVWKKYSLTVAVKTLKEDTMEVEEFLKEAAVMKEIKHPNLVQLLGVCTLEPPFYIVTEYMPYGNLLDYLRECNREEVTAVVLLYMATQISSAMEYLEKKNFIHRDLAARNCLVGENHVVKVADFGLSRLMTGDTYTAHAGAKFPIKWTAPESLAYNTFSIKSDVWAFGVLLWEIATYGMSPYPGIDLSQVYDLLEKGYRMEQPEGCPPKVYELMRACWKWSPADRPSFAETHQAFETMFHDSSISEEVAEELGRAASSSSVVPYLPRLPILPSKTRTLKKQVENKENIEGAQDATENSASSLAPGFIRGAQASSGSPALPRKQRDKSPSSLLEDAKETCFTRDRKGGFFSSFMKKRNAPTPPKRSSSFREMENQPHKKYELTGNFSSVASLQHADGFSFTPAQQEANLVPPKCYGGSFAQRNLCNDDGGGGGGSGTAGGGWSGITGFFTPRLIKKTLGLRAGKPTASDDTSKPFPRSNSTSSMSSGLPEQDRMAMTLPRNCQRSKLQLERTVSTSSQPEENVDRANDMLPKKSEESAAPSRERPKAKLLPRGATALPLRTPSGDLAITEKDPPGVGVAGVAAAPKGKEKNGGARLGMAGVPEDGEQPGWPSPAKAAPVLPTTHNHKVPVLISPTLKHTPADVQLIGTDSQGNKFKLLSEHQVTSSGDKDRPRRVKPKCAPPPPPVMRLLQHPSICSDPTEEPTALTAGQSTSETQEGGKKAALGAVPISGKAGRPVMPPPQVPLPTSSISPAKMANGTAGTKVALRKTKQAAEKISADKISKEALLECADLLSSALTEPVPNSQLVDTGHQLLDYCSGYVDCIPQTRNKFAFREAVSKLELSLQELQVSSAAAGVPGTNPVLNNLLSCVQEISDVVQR
# [7] = target: T3, Serine/threonine-protein kinase Nek9 (Homo sapiens) (UniProt Q8TD19); experiment: Inhibition of NEK9 K1 labeling site harbouring TEDDSLVVWKEVDLTR in human Huh-7 cells at 10 uM by KiNativ Profiling analysis relative to control; format: cell-based
# T3 sequence (whole entry): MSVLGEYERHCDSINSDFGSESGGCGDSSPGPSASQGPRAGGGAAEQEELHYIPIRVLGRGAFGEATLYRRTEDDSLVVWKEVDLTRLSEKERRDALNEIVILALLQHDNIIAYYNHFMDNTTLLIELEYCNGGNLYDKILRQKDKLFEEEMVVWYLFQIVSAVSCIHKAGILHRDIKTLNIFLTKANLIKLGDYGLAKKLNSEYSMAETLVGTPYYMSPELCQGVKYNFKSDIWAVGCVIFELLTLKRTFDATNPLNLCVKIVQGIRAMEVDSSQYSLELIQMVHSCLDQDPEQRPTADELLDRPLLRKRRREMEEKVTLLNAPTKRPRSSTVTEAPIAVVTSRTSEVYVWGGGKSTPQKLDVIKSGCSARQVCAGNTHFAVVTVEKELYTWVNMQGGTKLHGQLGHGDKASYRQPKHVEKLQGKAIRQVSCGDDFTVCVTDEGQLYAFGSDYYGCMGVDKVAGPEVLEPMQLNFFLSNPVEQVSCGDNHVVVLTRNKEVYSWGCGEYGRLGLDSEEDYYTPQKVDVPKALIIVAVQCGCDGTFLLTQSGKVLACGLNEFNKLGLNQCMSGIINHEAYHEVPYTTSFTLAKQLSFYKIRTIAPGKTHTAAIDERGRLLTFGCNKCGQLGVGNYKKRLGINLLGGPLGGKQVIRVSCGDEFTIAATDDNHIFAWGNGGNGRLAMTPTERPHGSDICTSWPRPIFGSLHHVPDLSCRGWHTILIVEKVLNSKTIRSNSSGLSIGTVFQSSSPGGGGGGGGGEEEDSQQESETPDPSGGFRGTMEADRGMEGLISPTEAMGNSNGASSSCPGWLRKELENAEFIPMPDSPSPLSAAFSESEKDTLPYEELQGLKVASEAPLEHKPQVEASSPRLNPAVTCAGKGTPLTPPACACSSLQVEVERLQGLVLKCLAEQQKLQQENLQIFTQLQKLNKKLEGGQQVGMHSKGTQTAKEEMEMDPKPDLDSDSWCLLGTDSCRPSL
# [8] = target: Casein kinase II subunit alpha' (Homo sapiens) (UniProt P19784); experiment: Inhibition of CSNK2A2 (unknown origin) at 10 uM by Ambit Kinomescan binding assay
# Casein kinase II subunit alpha' (Homo sapiens), sequence (P19784 whole entry, looked up): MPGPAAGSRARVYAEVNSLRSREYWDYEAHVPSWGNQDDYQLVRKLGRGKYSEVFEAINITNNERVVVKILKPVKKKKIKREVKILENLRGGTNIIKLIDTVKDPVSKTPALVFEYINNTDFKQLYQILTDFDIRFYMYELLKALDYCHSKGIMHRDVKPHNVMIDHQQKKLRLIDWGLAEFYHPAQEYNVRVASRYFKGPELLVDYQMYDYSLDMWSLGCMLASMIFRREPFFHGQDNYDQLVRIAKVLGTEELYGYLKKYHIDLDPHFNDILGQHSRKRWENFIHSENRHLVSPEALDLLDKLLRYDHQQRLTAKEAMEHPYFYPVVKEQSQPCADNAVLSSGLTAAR
smiles,measurement,setting,value
CNc1cc(Oc2cc(C(=O)Nc3cc(N4CCN(C)CC4)cc(C(F)(F)F)c3)ccc2C)ncn1,inhibition,[1],13%
CCN1CCN(Cc2ccc(NC(=O)c3ccc(C)c(/C=C/c4cnc5[nH]ccc5c4OC)c3)cc2C(F)(F)F)CC1,residual activity,[2],78%
same,inhibition,[3],11.9%
same,inhibition,[4],-9.6%
same,% of control,[5],0.45%
CCN1CCN(Cc2ccc(NC(=O)c3ccc(C)c(Oc4ccnc5[nH]ccc45)c3)cc2C(F)(F)F)CC1,inhibition,[6],84.8%
same,inhibition,[7],18.6%
same,inhibition,[8],inactive
